Assay results published in patent US12344623B2, “Thiazolopyridine derivatives as adenosine receptor antagonists” (Merck Patent GmbH, priority 2019, dated 2025).
Read-outs that look alike come from different tables or passages of the source.

Tests used:
Assay type in all cases: cell-based
human A2A receptor = human A2A receptor (Homo sapiens, UniProt P29274); test: Functional A2A receptor activity, recombinant HEK293 cells, cAMP (HTRF), agonist NECA; set-up: expressed in transfected cells; host or cells: HEK293; settings: read-out: Functional A2A receptor activity, HEK293, cAMP, IC50
Chain of human A2A receptor (P29274 whole entry): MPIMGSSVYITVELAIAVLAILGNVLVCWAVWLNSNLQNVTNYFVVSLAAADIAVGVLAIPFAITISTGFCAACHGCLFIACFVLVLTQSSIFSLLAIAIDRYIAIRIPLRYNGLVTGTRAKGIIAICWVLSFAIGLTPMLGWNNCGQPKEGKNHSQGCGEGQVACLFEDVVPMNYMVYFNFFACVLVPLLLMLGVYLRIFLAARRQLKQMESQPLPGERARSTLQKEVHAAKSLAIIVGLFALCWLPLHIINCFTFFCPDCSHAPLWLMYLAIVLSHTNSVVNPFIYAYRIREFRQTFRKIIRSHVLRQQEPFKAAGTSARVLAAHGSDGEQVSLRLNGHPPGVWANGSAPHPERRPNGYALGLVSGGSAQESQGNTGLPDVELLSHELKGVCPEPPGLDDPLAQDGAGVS
Description: (§1) The functional activities of human A2A, A2B, A1 and A3 receptors were determined by quantification of cAMP, being the second messenger for adenosine receptors.
(§2) Cells were seeded into 384-well plates, forskolin, test compounds and agonists (CPA for A1- and IB-MECA for A3-receptor) were added. After 30 min incubation, HTRF reagents (cAMP dynamic 2, Cis Bio) were added and the cellular cAMP levels were determined using the ENVISION (Perkin Elmer) plate reader. Obtained raw data were normalized against the inhibitor control and the neural control (DMSO) and the normalized data were fitted using GeneData software.

human A3 receptor = target: T1, human A3 receptor (Homo sapiens, UniProt P0DMS8); test: Functional A3 receptor activity, recombinant CHO cells, cAMP (HTRF), forskolin, agonist IB-MECA; settings: recombinant CHO cells, forskolin, agonist IB-MECA, read-out: Functional A3 receptor activity, CHO, cAMP, IC50
T1 construct: expressed in transfected cells; host or cells: CHO
T1 sequence (P0DMS8 1-318): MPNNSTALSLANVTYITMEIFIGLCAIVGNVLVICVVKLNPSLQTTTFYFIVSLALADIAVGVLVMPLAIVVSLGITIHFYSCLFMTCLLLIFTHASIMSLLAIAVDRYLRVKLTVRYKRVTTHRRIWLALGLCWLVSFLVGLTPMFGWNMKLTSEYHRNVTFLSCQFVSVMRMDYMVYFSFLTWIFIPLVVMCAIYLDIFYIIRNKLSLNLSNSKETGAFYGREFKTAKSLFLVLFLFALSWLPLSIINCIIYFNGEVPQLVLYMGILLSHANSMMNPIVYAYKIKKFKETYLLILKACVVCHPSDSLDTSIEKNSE
Description: as §1
(§3) For human A1 and A3 receptors, recombinant CHO cells, expressing either A1 or A3-receptor, were used. As both receptors couple to Gi proteins, the assay protocol was adapted:
as §2

human A1 receptor = target: T2, human A1 receptor (Homo sapiens, UniProt P30542); test: Functional A1 receptor activity, recombinant CHO cells, cAMP (HTRF), forskolin, agonist CPA; settings: recombinant CHO cells, forskolin, agonist CPA; read-out: Functional A1 receptor activity, CHO, cAMP, IC50
T2 construct: expressed in transfected cells; host or cells: CHO
T2 sequence (P30542 1-326): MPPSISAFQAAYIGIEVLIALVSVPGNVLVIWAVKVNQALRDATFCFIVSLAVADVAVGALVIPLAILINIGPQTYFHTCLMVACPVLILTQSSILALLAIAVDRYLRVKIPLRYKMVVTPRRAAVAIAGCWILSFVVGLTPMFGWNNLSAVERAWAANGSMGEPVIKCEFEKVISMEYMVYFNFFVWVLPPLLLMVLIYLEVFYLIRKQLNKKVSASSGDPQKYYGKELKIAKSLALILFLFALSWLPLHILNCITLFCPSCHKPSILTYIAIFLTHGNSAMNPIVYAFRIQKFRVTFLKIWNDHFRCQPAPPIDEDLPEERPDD
Description: as §1, §3, §2

human A2B receptor = target: T3, human A2B receptor (Homo sapiens, UniProt P29275); test: Functional A2B receptor activity, recombinant HEK293 cells, cAMP (HTRF), agonist NECA; settings: read-out: Functional A2B receptor activity, HEK293, cAMP, IC50
T3 construct: expressed in transfected cells; host or cells: HEK293
T3 sequence (P29275 1-332): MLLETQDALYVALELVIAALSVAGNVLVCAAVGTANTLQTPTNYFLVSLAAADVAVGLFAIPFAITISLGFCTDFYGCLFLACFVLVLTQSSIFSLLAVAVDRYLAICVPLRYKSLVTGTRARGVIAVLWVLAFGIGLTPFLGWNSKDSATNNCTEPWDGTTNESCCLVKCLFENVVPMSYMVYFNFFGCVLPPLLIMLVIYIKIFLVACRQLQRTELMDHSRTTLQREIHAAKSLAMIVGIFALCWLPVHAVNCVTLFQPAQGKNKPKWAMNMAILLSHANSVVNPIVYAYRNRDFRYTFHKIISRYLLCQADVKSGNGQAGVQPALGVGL
Description: as §1, §2

SMILES | IC50 (human A2A receptor) [nM] | IC50 (human A3 receptor) [nM] | IC50 (human A1 receptor) [nM] | IC50 (human A2B receptor) [nM] | IC50 (human A3 receptor; cAMP) [nM]
COCCNc1ncc(C(=O)Nc2nc3c(OC)ncc(C4CCOCC4)c3s2)s1 [Compound 17, N-[4-methoxy-7-(oxan-4-yl)-[1,3]thiazolo[4,5-c]pyridin-2-yl]-2-[(2-methoxyethyl)amino]-1,3-thiazole-5-carboxamide] | < 10 | > 1000 | < 1000 | < 10 | –
COCCn1cc(C(=O)Nc2nc3c(OC)nc(F)c(C4CCOCC4)c3s2)cn1 [Compound 22, N-[6-fluoro-4-methoxy-7-(oxan-4-yl)-[1,3]thiazolo[4,5-c]pyridin-2-yl]-1-(2-methoxyethyl)-1H-pyrazole-4-carboxamide] | < 10 | < 1000 | < 1000 | < 10 | –
COc1nc(F)c(C2CCOCC2)c2sc(NC(=O)c3cnn(C)c3)nc12 [Compound 23, N-[6-fluoro-4-methoxy-7-(oxan-4-yl)-[1,3]thiazolo[4,5-c]pyridin-2-yl]-1-methyl-1H-pyrazole-4-carboxamide] | < 10 | > 1000 | < 1000 | < 10 | –
COc1nc(F)c(-c2ccc(F)cc2)c2sc(NC(=O)N3CCC(C)(O)CC3)nc12 [Compound 27, 4-Hydroxy-4-methyl-piperidine-1-carboxylic acid [6-fluoro-7-(4-fluoro-phenyl)-4-methoxy-thiazolo[4,5-c]pyridin-2-yl]-amide] | < 10 | > 1000 | < 1000 | < 10 | –
COc1ncc(-c2cnn(Cc3cccnc3)c2)c2sc(NC(=O)c3ccc(C(=O)O)cc3)nc12 [Compound 115, 4-[(4-methoxy-7-{1-[(pyridin-3-yl)methyl]-1H-pyrazol-4-yl}-[1,3]thiazolo[4,5-c]pyridin-2-yl)carbamoyl]benzoic acid] | < 10 | < 1000 | – | < 10 | –
COc1ncc(C2=CCOCC2)c2sc(NC(=O)c3cn[nH]c3)nc12 [Compound 116, N-[7-(3,6-dihydro-2H-pyran-4-yl)-4-methoxy-[1,3]thiazolo[4,5-c]pyridin-2-yl]-1H-pyrazole-4-carboxamide] | < 10 | < 1000 | – | < 10 | –
COc1ncc(-c2ccccc2)c2sc(NC(=O)c3cn[nH]c3)nc12 [Compound 117, N-{4-methoxy-7-phenyl-[1,3]thiazolo[4,5-c]pyridin-2-yl}-1H-pyrazole-4-carboxamide] | < 10 | < 1000 | – | < 10 | –
COc1ncc(-c2cccc(NS(C)(=O)=O)c2)c2sc(NC(=O)N3CCC4(CCOCC4)C3)nc12 [Compound 120, 8-Oxa-2-aza-spiro[4.5]decane-2-carboxylic acid [7-(3-methanesulfonylamino-phenyl)-4-methoxy-thiazolo[4,5-c]pyridin-2-yl]-amide] | < 100 | > 1000 | > 1000 | – | –
COc1ncc(C2=CCOCC2)c2sc(NC(=O)c3ccc(C(=O)NCCN4CCC4)cc3)nc12 [Compound 139, N-(2-Azetidin-1-yl-ethyl)-N′-[7-(3,6-dihydro-2H-pyran-4-yl)-4-methoxy-thiazolo[4,5-c]pyridin-2-yl]-terephthalamide] | < 10 | > 1000 | – | < 100 | –
COc1ncc(C2=CCOCC2)c2sc(NC(=O)c3cnn(Cc4ncc[nH]4)c3)nc12 [Compound 158, 1-(1H-Imidazol-2-ylmethyl)-1H-pyrazole-4-carboxylic acid [7-(3,6-dihydro-2H-pyran-4-yl)-4-methoxy-thiazolo[4,5-c]pyridin-2-yl]-amide] | < 10 | > 1000 | – | < 10 | –
COc1ncc(-c2cnn(C(C)(C)c3ccccc3)c2)c2sc(NC(=O)N3CCC4(CCOCC4)C3)nc12 [Compound 163, 8-Oxa-2-aza-spiro[4.5]decane-2-carboxylic acid {4-methoxy-7-[1-(1-methyl-1-phenyl-ethyl)-1H-pyrazol-4-yl]-thiazolo[4,5-c]pyridin-2-yl}-amide] | < 10 | > 1000 | – | < 100 | –
COC(=O)N(C)Cc1ccc(C(=O)Nc2nc3c(OC)ncc(C4=CCOCC4)c3s2)cc1 [Compound 167, {4-[7-(3,6-Dihydro-2H-pyran-4-yl)-4-methoxy-thiazolo[4,5-c]pyridin-2-ylcarbamoyl]-benzyl}-methyl-carbamic acid methyl ester] | < 10 | > 1000 | – | < 10 | –

Other lines, results leading:

IC50 (human A2A receptor) [nM] | IC50 (human A3 receptor) [nM] | IC50 (human A1 receptor) [nM] | IC50 (human A2B receptor) [nM] | IC50 (human A3 receptor; cAMP) [nM] | SMILES
< 10 | < 1000 | > 1000 | < 10 | – | COc1nc(F)c(N2CCOCC2)c2sc(NC(=O)C3CC3)nc12 [Compound 4, Cyclopropanecarboxylic acid (6-fluoro-4-methoxy-7-morpholin-4-yl-thiazolo[4,5-c]pyridin-2-yl)-amide]
< 10 | > 1000 | > 1000 | < 100 | – | COc1ncc(-c2ccc3cc[nH]c3c2)c2sc(NC(=O)N3CCC4(CCOCC4)C3)nc12 [Compound 9, N-[7-(1H-indol-6-yl)-4-methoxy-[1,3]thiazolo[4,5-c]pyridin-2-yl]-8-oxa-2-azaspiro[4.5]decane-2-carboxamide]
< 10 | > 1000 | > 1000 | < 100 | – | COc1nc(F)c(N2CCOCC2)c2sc(NC(=O)N3CCC4(CCOC4)C3)nc12 (stereo not shown) [Compound 16, N-[6-fluoro-4-methoxy-7-(morpholin-4-yl)-[1,3]thiazolo[4,5-c]pyridin-2-yl]-2-oxa-7-azaspiro[4.4]nonane-7-carboxamide]
< 10 | > 1000 | – | < 100 | – | COc1ncc(-c2cnn(C[C@H]3CCCOC3)c2)c2sc(NC(=O)N3CCC4(CCOCC4)C3)nc12 [Compound 104, 8-Oxa-2-aza-spiro[4.5]decane-2-carboxylic acid (4-methoxy-7-{1-[(R)-1-(tetrahydro-pyran-3-yl)methyl]-1H-pyrazol-4-yl}-thiazolo[4,5-c]pyridin-2-yl)-amide]
< 10 | > 1000 | – | < 100 | – | COc1ncc(-c2cnn(C[C@@H]3CCCOC3)c2)c2sc(NC(=O)N3CCC4(CCOCC4)C3)nc12 [Compound 105, 8-Oxa-2-aza-spiro[4.5]decane-2-carboxylic acid (4-methoxy-7-{1-[(S)-1-(tetrahydro-pyran-3-yl)methyl]-1H-pyrazol-4-yl}-thiazolo[4,5-c]pyridin-2-yl)-amide]
< 10 | > 1000 | – | < 100 | – | COc1ncc(-c2cnn(C[C@@H]3CCCCO3)c2)c2sc(NC(=O)N3CCC4(CCOCC4)C3)nc12 [Compound 118, 8-Oxa-2-aza-spiro[4.5]decane-2-carboxylic acid (4-methoxy-7-{1-[(S)-1-(tetrahydro-pyran-2-yl)methyl]-1H-pyrazol-4-yl}-thiazolo[4,5-c]pyridin-2-yl)-amide]
< 10 | > 1000 | – | < 100 | – | COc1ncc(-c2cnn(C[C@H]3CCCCO3)c2)c2sc(NC(=O)N3CCC4(CCOCC4)C3)nc12 [Compound 119, 8-Oxa-2-aza-spiro[4.5]decane-2-carboxylic acid (4-methoxy-7-{1-[(R)-1-(tetrahydro-pyran-2-yl)methyl]-1H-pyrazol-4-yl}-thiazolo[4,5-c]pyridin-2-yl)-amide]
< 100 | – | – | > 1000 | > 1000 | COc1cnc(N2CCOCC2)c2sc(NC(=O)N3CCC4(CCN(C)C4=O)CC3)nc12 [drawing 186, reference compound]
